From article PMC1079851, “Cloning of the koi herpesvirus (KHV) gene encoding thymidine kinase and its use for a highly sensitive PCR based diagnosis” (BMC Microbiology, 2005)

Molecular target: T1, KHV TK (recombinant thymidine kinase) (Cyprinid herpesvirus 3, UniProt Q8B3A9)
T1 construct: gene CyHV3_ORF55; E. coli ER2566, chitin column
Experiment: DE-81 filter paper radiometric kinase assay
Type: biochemical
Conditions: ATP 10.0 mM, MgCl2 2.0 mM, Tris-Cl 140 mM, 37 °C; substrate 5-30 mM; labelled compound (methyl-3H)

SMILES: Cc1cn([C@H]2C[C@H](O)[C@@H](CO)O2)c(=O)[nH]c1=O [methyl-3H Thymidine (dThd)]
- DE-81 filter paper radiometric kinase assay: the enzyme is specifically active using methyl-^3H Thymidine (dThd)
